Reference: patent US20040067891A1, “Therapeutic and/or preventive agents for diseases due to retinal ischemia” (priority 2000, published 2004)

Key:
[1] = test system: retinal disorders due to transient retinal ischemia; assay: rat model with retinal disorders due to transient retinal ischemia; type: in vivo; conditions: SD male rats
Description: Effects of the compound represented by the formula (I) (which will hereinafter be called “compound of the present invention”) on a rat model with retinal disorders due to transient retinal ischemia;
The model with retinal disorders due to transient retinal ischemia was prepared in accordance with the method described in Eur. J. Pharmaco., 350, 53-57 (1998).
After rats (SD male rats, 9-week-old (purchased from Charles River Japan, Inc.)) were weighed, pentobarbital sodium (Pentbarbital Na) (50-75 mg/kg) was intraperitoneally administered to anesthetize them. They were fixed to a platform, and kept warm at around 37° C. A perfusate for ophthalmic surgery (“BSS PLUS”; product of Santen Pharmaceutical) was hung so that the height from the position of the eyes of the rats would be 170 cm±5 cm. This height permitted application of pressure of about 130 mmHg. To the perfusate bottle was connected an extension tube and an injection needle (27 gauge×¾ inch) was attached to another end of the tube. […]
After the eyeballs were immobilized in a Davidson's fixative and a paraffin section was prepared at the cross-section passing through the optic papilla, it was dyed with hematoxylin and eosin (H.E.). […] The number of granule cells (GCL (ganglion cell layer), cell/mm) per 1 mm width of the optic papilla was counted by optical microscopic examination. […]

rats = assay: single-dose oral toxicity in rats; type: in vivo, rat; conditions: single-dose oral administration to rats
Description: The compound represented by the formula (I) or a non-toxic salt thereof has markedly low toxicity so that use of it as a pharmaceutical can be considered as safe enough. For example, the minimum lethal dose of the compound represented by the formula (I) by single-dose oral administration to rats was 2000 mg/kg or more.

Compound: CC(C)(C)OC(=O)N1CSC[C@H]1C(=O)N[C@@H](CSCC1CCCCC1)C(=O)NC1CCN(Cc2ccccc2)CC1 [Compound of the present invention, (2R)-N-(1-Benzylpiperidin-4-yl)-3-cyclohexylmethylthio-2-((4R)-3-t-butoxycarbonylthiazolidin-4-ylcarbonylamino)propanamide]
- The number of granule cells (GCL) ([1]; 100 mg/5 mL/kg oral one hour before 45 min ischemia, counted one week after ischemia, per 1 mm width of the optic papilla): 49.2 cell/mm
- inhibiting activity to the model of retinal disorders due to transient retinal ischemia ([1]; 100 mg/kg oral one hour before ischemia, from granule cell counts of Table 1): 34%
- minimum lethal dose (rats): ≥ 2000 mg/kg
